Experimental data published in the supplement of paper PMC3937590.

What was measured:
Assay in all cases: -log10 GI50 (growth inhibition 50%) (-log10(M)); higher = more potent growth inhibition
T47D_KBluc = system: T47D_KBluc
Summary of the method: (§1)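 Dose-response data came from breast cancer cell lines exposed to each compound for 72 hours at nine doses in 1:5 serial dilution, in triplicate, and read by luminescence relative to a time-zero plate. A Gompertz curve fitted by nonlinear least squares gave GI50, the molar concentration for the set level of growth inhibition, reported as its negative logarithm to base 10. Where a value equals the top dose, it carries a < qualifier.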

HCC38 = system: HCC38
Summary of the method: as §1

MDAMB231 = system: MDAMB231
Summary of the method: as §1

HCC1428 = system: HCC1428
Summary of the method: as §1

MDAMB361 = system: MDAMB361
Summary of the method: as §1

HCC1569 = system: HCC1569
Summary of the method: as §1

SUM225CWN = system: SUM225CWN
Summary of the method: as §1

ZR75B = system: ZR75B
Summary of the method: as §1

HCC1143 = system: HCC1143
Summary of the method: as §1

600MPE = system: 600MPE
Summary of the method: as §1

AU565 = system: AU565
Summary of the method: as §1

BT549 = system: BT549
Summary of the method: as §1

SUM159PT = system: SUM159PT
Summary of the method: as §1

HCC1419 = system: HCC1419
Summary of the method: as §1

HCC1954 = system: HCC1954
Summary of the method: as §1

HCC1806 = system: HCC1806
Summary of the method: as §1

HCC1937 = system: HCC1937
Summary of the method: as §1

SUM229PE = system: SUM229PE
Summary of the method: as §1

MDAMB134VI = system: MDAMB134VI
Summary of the method: as §1

MDAMB157 = system: MDAMB157
Summary of the method: as §1

-log10 GI50 (T47D_KBluc) | -log10 GI50 (HCC38) | -log10 GI50 (MDAMB231) | -log10 GI50 (HCC1428) | -log10 GI50 (MDAMB361) | -log10 GI50 (HCC1569) | -log10 GI50 (HCC1143) | -log10 GI50 (BT549) | -log10 GI50 (HCC1419) | -log10 GI50 (HCC1954) | -log10 GI50 (HCC1806) | -log10 GI50 (HCC1937) | -log10 GI50 (MDAMB134VI) | -log10 GI50 (MDAMB157) | Structure (SMILES) | -log10 GI50 (SUM225CWN) | -log10 GI50 (ZR75B) | -log10 GI50 (600MPE) | -log10 GI50 (AU565) | -log10 GI50 (SUM159PT) | -log10 GI50 (SUM229PE)
5.4 | 6.2 | 5.53 | 5.37 | 5.23 | 6.07 | 5.82 | 5.47 | 5.19 | 5.16 | 5.55 | 5.2 | 5.3 | 6.1 | CC(=O)NCC(=O)N1[C@@H]2CC[C@H]1c1ccc(Nc3ncc(C(F)(F)F)c(NC4CCC4)n3)cc12 | 5.05 | 5.94 | 6.03 | 5.57 | 6.37 | 6.1
< 4.18 | < 4.18 | < 4.18 | 4.45 | 4.41 | 4.27 | < 4.18 | < 4.18 | < 4.18 | 4.84 | < 4.18 | 4.54 | 4.33 | 4.88 | CCC[C@H](N[C@H]1CCc2cc(F)cc(F)c2C1)C(=O)Nc1cn(C(C)(C)CNCC(C)(C)C)cn1 | 4.84 | < 4.18 | < 4.18 | 4.98 | < 4.18 | < 4.18
5.13 | 5 | 5.32 | 5.79 | 4.84 | 5.12 | 5.56 | 5.21 | 5.19 | 5.06 | 4.09 | 4.71 | 4.96 | 5.06 | CNC(=O)c1c(F)cccc1Nc1nc(Nc2cc3c(cc2OC)CCN3C(=O)CN(C)C)nc2[nH]ccc12 | 4.9 | 5.01 | 6.49 | 5.63 | 5.47 | 6.2
7.25 | 6.51 | 6.35 | 6.51 | 7.36 | 6.78 | 6.86 | 6.38 | 7.58 | 6.88 | 6.43 | 6.92 | 6.8 | 6.13 | COc1ccc(-c2cc3c(C)nc(N)nc3n([C@H]3CC[C@H](OCCO)CC3)c2=O)cn1 | 6.79 | 7.28 | 7.32 | 7.51 | 6.73 | 6.25
7.71 | 7.61 | 6.37 | 7.57 | 8.82 | 7.75 | 7.43 | 7.32 | 9.48 | 8.04 | 7.54 | 7.57 | 7.97 | 6.51 | COc1ncc(-c2ccc3nccc(-c4ccnnc4)c3c2)cc1NS(=O)(=O)c1ccc(F)cc1F | 8.79 | 8.31 | 8.22 | 8.1 | 7.63 | 8.59
< 4.48 | < 4.48 | < 4.48 | 5.51 | 6.68 | 6.33 | < 4.48 | < 4.48 | 7.2 | 7.28 | < 4.48 | < 4.48 | < 4.48 | 6.55 | Cn1c(=O)n(-c2ccc(C(C)(C)C#N)cc2)c2c3cc(-c4cnc5ccccc5c4)ccc3ncc21 [BEZ235] | 6.68 | 6.85 | < 4.48 | 6.59 | 7.44 | 6.67
4 | 4.52 | 4.75 | 4.41 | < 3.78 | 4.33 | 4.15 | 4.64 | 4.09 | < 3.78 | 4.73 | 4.46 | 4.07 | 4.28 | O=c1cc(-c2ccccc2)oc2cc(O)c(O)c(O)c12 [Baicalein] | 4.43 | 4.36 | < 3.78 | 4.38 | 3.82 | 4.08
6.52 | 7.98 | 7.66 | 7.28 | 5.54 | 8.12 | 8.12 | 8.21 | 8.86 | 8.13 | 7.59 | 8.1 | 8.08 | 8.16 | CC(C)C[C@H](NC(=O)[C@H](Cc1ccccc1)NC(=O)c1cnccn1)B(O)O [Bortezomib] | 8 | 7.53 | 6.85 | 8.32 | 8.14 | 7.48
< 4.48 | 6.05 | 5.55 | 5.43 | 5.9 | 5.76 | 5.31 | 5.95 | 5.97 | 5.92 | 5.69 | 5.84 | < 4 | 5.88 | COc1cc(Nc2c(C#N)cnc3cc(OCCCN4CCN(C)CC4)c(OC)cc23)c(Cl)cc1Cl [Bosutinib] | 5.81 | 5.15 | 5.27 | 5.67 | 5.86 | 5.88
< 4.18 | < 4.18 | 4.33 | 4.75 | < 4.18 | 4.78 | 4.24 | 4.39 | 5.2 | 5.55 | 5.37 | 4.41 | < 4.18 | < 4.18 | C#Cc1cccc(Nc2ncnc3cc(OCCOC)c(OCCOC)cc23)c1 [Erlotinib] | 4.89 | < 4.18 | 4.3 | 4.93 | 4.93 | 4.95
5.79 | 6.54 | 5.69 | 4.47 | 4.85 | 4.2 | 5.29 | 5.89 | 4.18 | 6.01 | 5.51 | 5.34 | 5.61 | 6.02 | COc1cc([C@@H]2c3cc4c(cc3[C@@H](O[C@@H]3O[C@@H]5CO[C@@H](C)O[C@H]5[C@H](O)[C@H]3O)[C@H]3COC(=O)[C@H]23)OCO4)cc(OC)c1O [Etoposide] | 4.99 | 6.06 | 5.26 | 6.2 | 6.11 | 6.04
